This assay has as its target T1, exo− E. coli Polymerase I, Klenow fragment (Escherichia coli, UniProt P00582, D355A/E357A).
T1 construct: 12.5 U exo^− E. coli Polymerase I, Klenow fragment (Epicentre); purchased Epicentre
Briefly: Primer extension: incorporation of 3′ thiol-nucleoside triphosphate into a growing DNA strand by DNA polymerase. The assay is classed as biochemical. The procedure:
DNA synthesis was performed on a single-stranded DNA template (5′-TTTTTTCTAAGGTAGCGACTGTCCTATACAGACTGACAAAAAAAGAGAATGAGGAACCCGGGGCAG-3′) (SEQ ID NO:1), which was labeled at its 5′ end with a dual biotin tag and was attached to a magnetic bead (FIG. 3B). Synthesis was primed using a primer (5′-CTGCCCCGGGTTCCTCATTCTCT-3′) (SEQ ID NO:2), which was complementary to a portion of the DNA template. The primer was labeled with Cy5 at its 5′ end. The DNA template contained 5 adenine nucleotides immediately downstream of the primer sequence. […]

T1 sequence (P00582 324-928 D355A/E357A): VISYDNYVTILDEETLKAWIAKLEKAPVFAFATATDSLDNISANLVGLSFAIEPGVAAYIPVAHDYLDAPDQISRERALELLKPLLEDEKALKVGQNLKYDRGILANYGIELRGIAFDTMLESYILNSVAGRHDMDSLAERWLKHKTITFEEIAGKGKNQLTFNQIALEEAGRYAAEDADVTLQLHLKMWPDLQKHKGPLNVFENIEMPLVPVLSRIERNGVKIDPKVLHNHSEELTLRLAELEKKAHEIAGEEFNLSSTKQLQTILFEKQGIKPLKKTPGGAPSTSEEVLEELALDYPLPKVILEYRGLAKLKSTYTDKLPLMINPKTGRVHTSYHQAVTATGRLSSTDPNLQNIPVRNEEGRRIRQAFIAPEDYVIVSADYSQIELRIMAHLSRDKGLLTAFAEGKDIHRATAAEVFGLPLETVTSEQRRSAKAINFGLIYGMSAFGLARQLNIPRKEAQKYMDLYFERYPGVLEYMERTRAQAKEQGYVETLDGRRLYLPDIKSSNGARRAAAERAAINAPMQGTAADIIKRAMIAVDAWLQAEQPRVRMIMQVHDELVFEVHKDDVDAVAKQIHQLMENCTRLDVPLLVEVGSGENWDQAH

As for `CSS[C@H]1C[C@H](n2cc(C)c(=O)[nH]c2=O)O[C@@H]1CO` [3′-deoxy-dithiomethyl thymidine], the “modified thymidine residues in the vast majority of reaction products” value (higher concentration 1.0 mM (FIG. 3E)) was determined as 5. In addition, the “number of 3′-deoxy-dithiomethyl thymidine nucleotides incorporated into the DNA product” value (template with 5 adenines downstream of primer, 37° C., 4.0 min) was “Up to five”.

Source of the values: patent US20100298551A1, “Methods Of Producing And Sequencing Modified Polynucleotides” (priority 2005, published 2010).
